Data from PMC7468108 (Communications Biology, 2020).

Legend:
hIAPP = molecular target: T1, hIAPP (Homo sapiens, UniProt P10997); assay: ThT-binding assay, inhibition of hIAPP aggregation; format: biochemical; conditions: for Normalized ThT fluorescence: hIAPP (10 µM) : molecule 1:5, average of three data sets; for % amyloid of hIAPP: hIAPP 10 µM
T1 construct: hIAPP is a 37-amino acid neuroendocrine peptide hormone; purchased Peptide 2.0 (USA)
T1 sequence (P10997 34-70 limits assumed): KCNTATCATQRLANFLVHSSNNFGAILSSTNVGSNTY
Protocol: A similar inhibitory effect by the hybrid molecules was found toward hIAPP aggregation. […] Upon co-incubation of hIAPP with the hybrid molecules, a dose-response inhibition of hIAPP fibril formation was observed (Fig. 2d, e and Supplementary Fig. 3). […] Also, for IAPP, the marginally stronger inhibitory effect of WGalNAc was statistically significant (Supplementary Fig. 2b).
The resulting thin films were dissolved in PBS (100 mM, pH 7.4) and sonicated for 5 min to get a stock concentration of 50 µM, which immediately diluted to required concentration for an experiment. Stock solutions of ThT (4 mM in PBS) and hybrid molecules (10 mM in PBS) were prepared. All the stock solutions were diluted according to the requirement.
(§1) The experiment was performed according to the previous report. […] Kinetics fluorescence data were collected at 37 °C in triplicate using Infinite M200 microplate reader (Tecan, Switzerland), with measurements acquired at 15 min intervals. Excitation and emission wavelengths were set at 440 nm and 485 nm, respectively.

[1] = molecular target: T2, pre-formed fibrils of Aβ42 (Homo sapiens, UniProt P05067); assay: ThT-binding assay, disaggregation of pre-formed Aβ42 fibrils; format: biochemical; conditions: for % amyloid of Aβ42: disaggregation of pre-formed Aβ42 (10 µM) fibrils
T2 construct: purchased rPeptide (USA)
T2 sequence (P05067 672-713 limits assumed): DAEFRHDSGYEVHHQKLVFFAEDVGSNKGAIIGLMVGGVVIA
Protocol: For efficient treatment of proteinopathies it may be advantageous to disassemble amyloid aggregates/fibrils which are usually already present at the time of diagnosis[75]–[77]. […] Then, various doses of the hybrid molecules were added to the pre-formed fibrils and the mixtures were incubated for additional 10 h. The process of disaggregation was monitored by ThT-binding assay, CD spectroscopy, TEM and Congo red staining (Fig. 5).
as §1

[2] = molecular target: T3, pre-formed fibrils of hIAPP (Homo sapiens, UniProt P10997); assay: Congo red birefringence of pre-formed hIAPP fibrils with the tested molecules; conditions: 5-fold molar excess of compound
T3 construct: hIAPP is a 37-amino acid neuroendocrine peptide hormone; purchased Peptide 2.0 (USA)
T3 sequence (P10997 34-70 limits assumed): T1 sequence (P10997 34-70 limits assumed)
Protocol: For efficient treatment of proteinopathies it may be advantageous to disassemble amyloid aggregates/fibrils which are usually already present at the time of diagnosis[75]–[77]. Therefore, the ability of the hybrid molecules to disrupt pre-formed fibrils of Aβ42 and hIAPP was examined. […] According to the ThT kinetic results, this time was sufficient to complete fibril formation (Fig. 2a, d). Then, various doses of the hybrid molecules were added to the pre-formed fibrils and the mixtures were incubated for additional 10 h. The process of disaggregation was monitored by ThT-binding assay, CD spectroscopy, TEM and Congo red staining (Fig. 5).

NC(Cc1c[nH]c2ccccc12)C(=O)NC(Cc1c[nH]c2ccccc12)C(=O)O (stereo not shown) [WW]
Normalized ThT fluorescence (hIAPP; Time 0 h): 29.978
Normalized ThT fluorescence (hIAPP; Time 0.25 h): -2.428
Normalized ThT fluorescence (hIAPP; Time 0.5 h): 312.254
Normalized ThT fluorescence (hIAPP; Time 0.75 h): 629.363
Normalized ThT fluorescence (hIAPP; Time 1 h): 980.330
Normalized ThT fluorescence (hIAPP; Time 1.25 h): 1609.153
Normalized ThT fluorescence (hIAPP; Time 1.5 h): 2335.279
Normalized ThT fluorescence (hIAPP; Time 1.75 h): 2857.634
Normalized ThT fluorescence (hIAPP; Time 2 h): 3166.885
Normalized ThT fluorescence (hIAPP; Time 2.25 h): 3521.809
Normalized ThT fluorescence (hIAPP; Time 2.5 h): 3762.743
Normalized ThT fluorescence (hIAPP; Time 2.75 h): 4063.191
Normalized ThT fluorescence (hIAPP; Time 3 h): 4256.338
Normalized ThT fluorescence (hIAPP; Time 3.25 h): 4441.516
Normalized ThT fluorescence (hIAPP; Time 3.5 h): 4588.861
Normalized ThT fluorescence (hIAPP; Time 3.75 h): 4641.496
Normalized ThT fluorescence (hIAPP; Time 4 h): 4783.902
Normalized ThT fluorescence (hIAPP; Time 4.25 h): 5155.140
Normalized ThT fluorescence (hIAPP; Time 4.5 h): 5083.691
Normalized ThT fluorescence (hIAPP; Time 4.75 h): 5147.945
Normalized ThT fluorescence (hIAPP; Time 5 h): 5383.622
Normalized ThT fluorescence (hIAPP; Time 5.25 h): 5413.206
Normalized ThT fluorescence (hIAPP; Time 5.5 h): 5636.242
Normalized ThT fluorescence (hIAPP; Time 5.75 h): 5718.561
Normalized ThT fluorescence (hIAPP; Time 6 h): 5762.151
Normalized ThT fluorescence (hIAPP; Time 6.25 h): 5998.572
Normalized ThT fluorescence (hIAPP; Time 6.5 h): 6267.216
Normalized ThT fluorescence (hIAPP; Time 6.75 h): 6187.949
Normalized ThT fluorescence (hIAPP; Time 7 h): 6251.809
Normalized ThT fluorescence (hIAPP; Time 7.25 h): 6421.160
Normalized ThT fluorescence (hIAPP; Time 7.5 h): 6518.393
Normalized ThT fluorescence (hIAPP; Time 7.75 h): 6603.373
Normalized ThT fluorescence (hIAPP; Time 8 h): 6737.364
Normalized ThT fluorescence (hIAPP; Time 8.25 h): 6750.786
Normalized ThT fluorescence (hIAPP; Time 8.5 h): 6792.841
Normalized ThT fluorescence (hIAPP; Time 8.75 h): 6865.131
Normalized ThT fluorescence (hIAPP; Time 9 h): 6824.556
Normalized ThT fluorescence (hIAPP; Time 9.25 h): 6905.238
Normalized ThT fluorescence (hIAPP; Time 9.5 h): 6910.878
Normalized ThT fluorescence (hIAPP; Time 9.75 h): 6951.940
Normalized ThT fluorescence (hIAPP; Time 10 h): 6938.219
Normalized ThT fluorescence (hIAPP; Time 10.25 h): 6978.295
Normalized ThT fluorescence (hIAPP; Time 10.5 h): 7036.631
Normalized ThT fluorescence (hIAPP; Time 10.75 h): 7131.130
Normalized ThT fluorescence (hIAPP; Time 11 h): 7205.208
Normalized ThT fluorescence (hIAPP; Time 11.25 h): 7201.975
Normalized ThT fluorescence (hIAPP; Time 11.5 h): 7247.388
Normalized ThT fluorescence (hIAPP; Time 11.75 h): 7228.342
Normalized ThT fluorescence (hIAPP; Time 12 h): 7216.738
Normalized ThT fluorescence (hIAPP; Time 12.25 h): 7265.266
Normalized ThT fluorescence (hIAPP; Time 12.5 h): 7198.053
Normalized ThT fluorescence (hIAPP; Time 12.75 h): 7266.511
Normalized ThT fluorescence (hIAPP; Time 13 h): 7230.088
Normalized ThT fluorescence (hIAPP; Time 13.25 h): 7204.082
Normalized ThT fluorescence (hIAPP; Time 13.5 h): 7254.393
Normalized ThT fluorescence (hIAPP; Time 13.75 h): 7295.955
Normalized ThT fluorescence (hIAPP; Time 14 h): 7250.976
Normalized ThT fluorescence (hIAPP; Time 14.25 h): 7276.851
Normalized ThT fluorescence (hIAPP; Time 14.5 h): 7406.119
Normalized ThT fluorescence (hIAPP; Time 14.75 h): 7447.878
Normalized ThT fluorescence (hIAPP; Time 15 h): 7365.784
% amyloid of hIAPP (hIAPP; molar ratio hIAPP:tested molecule 1:1): 105.600%
% amyloid of hIAPP (hIAPP; molar ratio hIAPP:tested molecule 1:5): 115.433%
% amyloid of hIAPP (hIAPP; molar ratio hIAPP:tested molecule 5:1): 99.082%
inhibition of hIAPP fibril formation (ThT), in words (hIAPP; molar ratios 5:1, 1:1, 1:5): No inhibitory effect
increase of ThT fluorescence intensity of pre-formed Aβ42 fibrils ([1]; compound added to pre-formed fibrils): ~ 20%
% amyloid of Aβ42 ([1]; molar ratio Aβ42:tested molecule (1:1)): 105.449%
% amyloid of Aβ42 ([1]; molar ratio Aβ42:tested molecule (1:5)): 118.857%
% amyloid of Aβ42 ([1]; molar ratio Aβ42:tested molecule (5:1)): 102.097%
Congo red birefringence of pre-formed hIAPP fibrils, in words [2]: unchanged
